Experimental data as given in patent US20230322724A1, “HETEROCYCLIC COMPOUNDS AS CBP/EP300 BROMODOMAIN INHIBITORS” (AURIGENE ONCOLOGY LIMITED, priority 2020, published 2023).
Read-outs that look alike come from different tables or passages of the source.

What was measured:
[1] = target: T1, recombinant CREBBP bromodomain (Homo sapiens, UniProt Q92793); assay: CBP TR-FRET displacement assay; assay type: binding; settings: for IC50: dose-response, read-out: IC50 (group A, B, C)
T1 construct: recombinant CREBBP bromodomain obtained from BPS Bioscience, USA; purchased BPS Bioscience, USA
Summary of the method: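 CREBBP bromodomain (50 nM) preincubated 30 min at room temperature with 500 nM biotinylated ligand in HEPES pH 7.5 buffer with TCEP, then 60 min with compound. Eu-anti-His/APC-streptavidin TR-FRET 665/615 nm ratio read; IC50 from sigmoidal dose-response fit.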

[2] = target: T2, recombinant BRD4 FL bromodomain (Homo sapiens, UniProt O60885); assay: BRD4 FL TR-FRET displacement assay; assay type: binding; settings: for IC50: dose-response, read-out: IC50 (group A, B, C); for inhibition at 10 µM: read-out: % Inhibition (10 μM)
T2 construct: fused on or other part: 6xHis tag, inferred from detection with Mab ANTI 6HIS-XL665
Summary of the method: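 Recombinant BRD4 FL (10 nM) pre-incubated 30 min at room temperature with 300 nM biotinylated acetyl-histone H4 (K5/8/12/16) in 50 mM HEPES pH 7.5, 50 mM NaCl, 500 μM CHAPS, then added to compounds for 30 min. Stopped with Eu-streptavidin/anti-6His-XL665 in KF; 665/615 nm ratio fitted sigmoidally for IC50.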

T1 sequence (Q92793 1085-1192 limits assumed): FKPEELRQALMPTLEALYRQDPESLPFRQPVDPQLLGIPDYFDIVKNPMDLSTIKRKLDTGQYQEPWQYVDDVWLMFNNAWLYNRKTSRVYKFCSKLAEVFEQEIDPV

SMILES	IC50 [1] [nM]	IC50 ([2]; BRD4 FL) [nM]	inhibition at 10 µM ([2]; BRD4 FL, compound at 10 μM) [%]	inhibition at 10 µM ([1]; compound at 10 μM) [%]	inhibition at 10 µM [2] [%]
CNC(=O)c1ccc(-c2cc3c(cc2F)N(c2cc(OC)cc4c2cc(C)c(=O)n4C)CCN3C)cn1 [Example 31]	< 50	2010 to 5000			
CC(=O)NS(=O)(=O)c1ccc2c(c1)N(c1cccc3c1cc(C)c(=O)n3C)CCN2C [Example 103, N-((4-(1,3-dimethyl-2-oxo-1,2-dihydroquinolin-5-yl)-1-methyl-1,2,3,4-tetrahydroquinoxalin-6-yl)sulfonyl)acetamide]	> 10		36		
COc1cc(N2CCN(C)c3ccc(C(C)=O)cc32)c2cc(C)c(=O)n(C)c2c1 [Example 79, 5-(7-Acetyl-4-methyl-3,4-dihydroquinoxalin-1(2H)-yl)-7-methoxy-1,3-dimethylquinolin-2(1H)-one]	51 to 100		56		
CC(=O)NS(=O)(=O)c1cc2c(cc1-c1cnn(C)c1)N(C)CCN2c1cccc2c1cc(C)c(=O)n2C [Example 112]	< 50		44		
CCC(=O)NS(=O)(=O)c1ccc2c(c1)N(c1cc(OC)cc3c1cc(C)c(=O)n3C)CCN2C [Example 106]	51 to 100		16		
COc1cc(N2CCN(C)c3ccc(S(=O)(=O)Nc4ccccc4)cc32)c2cc(C)c(=O)n(C)c2c1 [Example 102]	> 10	2010 to 5000			
CN1CCN(c2cccc3c2ccc(=O)n3C)c2cc(C#N)c(-c3cnn(C)c3)cc21 [Example 51]		2010 to 5000		99	
COc1cc(N2CCN(C)c3ccc(S(=O)(=O)NC(C)=O)cc32)c2cc(C)c(=O)n(C)c2c1 [Example 98]	< 50		56		
COc1cc(N2CCN(C)c3cc(C4CC=NO4)c(S(N)(=O)=O)cc32)c2cc(C)c(=O)n(C)c2c1 (centres unmarked) [Example 91, 7-(4,5-Dihydroisoxazol-5-yl)-4-(7-methoxy-1,3-dimethyl-2-oxo-1,2-dihydroquinolin-5-yl)-1-methyl-1,2,3,4-tetrahydroquinoxaline-6-sulfonamide]	< 50	2010 to 5000			
COc1cc(N2CCN(C)c3cc(F)c(S(=O)(=O)NC(C)=O)cc32)c2cc(C)c(=O)n(C)c2c1 [Example 104]	< 50		48		
COc1cc(N2CCN(C)c3cc(-c4cnn(C)c4)nc(C)c32)c2cc(C)c(=O)n(C)c2c1 [Example 127]	< 50		32		
Cc1cc2c(N3CCN(C)c4cc(-c5cnn(C)c5)ncc43)cc(OC(F)F)cc2n(C)c1=O [Example 129]	> 10	2010 to 5000			
CNS(=O)(=O)c1ccc2c(c1)N(c1cc(OC)cc3c1cc(C)c(=O)n3C)CCN2C [Example 95]	< 50	2010 to 5000			
Cc1cc2c(N3CCN(C(F)F)c4cc(-c5cnn(C)c5)ncc43)cc(N3CCOCC3)cc2n(C)c1=O [Example 163, 5-(1-(Difluoromethyl)-7-(1-methyl-1H-pyrazol-4-yl)-2,3-dihydropyrido[3,4-b]pyrazin-4(1H)-yl)-1,3-dimethyl-7-morpholinoquinolin-2(1H)-one]	> 10				16
CNC(=O)C1CN(c2cc3c(cc2C#N)N(c2cc(OC)cc4c2cc(C)c(=O)n4C)CCN3C)C1 [Example 27]	51 to 100	2010 to 5000			
COc1cc(N2CCN(C)c3cc(C4CCN(C)CC4)c(C#N)cc32)c2cc(C)c(=O)n(C)c2c1 [Example 70, 4-(7-Methoxy-1,3-dimethyl-2-oxo-1,2-dihydroquinolin-5-yl)-1-methyl-7-(1-methylpiperidin-4-yl)-1,2,3,4-tetrahydroquinoxaline-6-carbonitrile]	51 to 100	2010 to 5000			
COc1cc(N2CCN(C)c3cc(-c4cnn(C)c4)ncc32)c2cc(C)c(=O)n(C)c2c1 [Example 116, 7-Methoxy-1,3-dimethyl-5-(1-methyl-7-(1-methyl-1H-pyrazol-4-yl)-2,3-dihydropyrido[3,4-b]pyrazin-4(1H)-yl)quinolin-2(1H)-one]	51 to 100		50		

Second part, led by results:

IC50 [1] [nM]	IC50 ([2]; BRD4 FL) [nM]	inhibition at 10 µM ([2]; BRD4 FL, compound at 10 μM) [%]	inhibition at 10 µM ([1]; compound at 10 μM) [%]	SMILES	inhibition at 10 µM [2] [%]
< 50		45		CC(=O)N1CCC(c2cc(N3CCN(C)c4cc(-c5cnn(C)c5)ncc43)c3cc(C)c(=O)n(C)c3c2)CC1 [Example 153]	
< 50	2010 to 5000			CNC(=O)C1CCN(c2cc3c(cc2C#N)N(c2cc(OC)cc4c2cc(C)c(=O)n4C)CCC3)CC1 [Example 181]	
< 50	2010 to 5000			CC(=O)N1CCN(c2cc3c(cc(C)c(=O)n3C)c(N3CCCc4cc(-c5cnn(C)c5)c(C(F)F)cc43)n2)CC1 [Example 200, 7-(4-Acetylpiperazin-1-yl)-5-(7-(difluoromethyl)-6-(1-methyl-1H-pyrazol-4-yl)-3,4-dihydroquinolin-1(2H)-yl)-1,3-dimethyl-1,6-naphthyridin-2(1H)-one]	
< 50	2010 to 5000			COc1cc(N2CCCc3cc(N4CCN(C(C)=O)CC4)c(C#N)cc32)c2cc(C)c(=O)n(C)c2c1 [Example 182]	
51 to 100		66		Cc1cc2c(N3CCN(C)c4cc(-c5cnn(C)c5)ncc43)cc(N3CCOC(C)C3)cc2n(C)c1=O (centres unmarked) [Example 147]	
< 50	2010 to 5000			Cc1cc2c(N3CCCc4cc(-c5cnn(C)c5)c(C(F)F)cc43)nc(N3C[C@@H]4C[C@H]3CO4)cc2n(C)c1=O [Example 219]	
51 to 100	2010 to 5000			Cc1cc2c(N3CCN(C)c4cc(-c5cnn(C)c5)ncc43)cc(C3CCC(F)(F)CC3)cc2n(C)c1=O [Example 154]	
< 50	2010 to 5000			Cc1cc2c(N3CCCc4cc(-c5cnn(C)c5)c(C(F)F)cc43)nc(N3C4CCC3COC4)cc2n(C)c1=O [Example 218]	
51 to 100		48		Cc1cc2c(N3CCN(C)c4cc(-c5cnn(C)c5)ncc43)cc(C3CCCCC3)cc2n(C)c1=O [Example 152]	
< 50	2010 to 5000			COc1cc(N2CCOc3cc(-c4cnn(C)c4)ncc32)c2cc(C)c(=O)n(C)c2c1 [Example 170]	
< 50	2010 to 5000			Cc1cc2c(N3CCCc4cc(-c5cnn(C)c5)c(C(F)F)cc43)nc(N3CCC(O)C3)cc2n(C)c1=O (centres unmarked) [Example 208]	
> 10	2010 to 5000			CC1Cc2c(cc(N3CC[C@@H](O)C3)nc2N2CCCc3cc(-c4cnn(C)c4)c(C(F)F)cc32)N(C)C1=O (stereo partly drawn) [Example 243, 5-(7-(Difluoromethyl)-6-(1-methyl-1H-pyrazol-4-yl)-3,4-dihydroquinolin-1(2H)-yl)-7-((R)-3-hydroxypyrrolidin-1-yl)-1,3-dimethyl-3,4-dihydro-1,6-naphthyridin-2(1H)-one]	
< 50	2010 to 5000			Cc1cc2c(N3CCN(C)c4cc(-c5cnn(C)c5)ncc43)cc(N3CCC4(COC4)C3)cc2n(C)c1=O [Example 150]	
< 50	2010 to 5000			Cc1cc2c(N3CCCc4cc(-c5cnn(C)c5)c(C(F)F)cc43)cc(C3CCOCC3)cc2n(C)c1=O [Example 179]	
< 50	2010 to 5000			Cc1cc2c(N3CCCc4cc(-c5cnn(C)c5)c(O)cc43)nc(N3CCC(O)C3)cc2n(C)c1=O (centres unmarked) [Example 245, 5-(7-Hydroxy-6-(1-methyl-1H-pyrazol-4-yl)-3,4-dihydroquinolin-1(2H)-yl)-7-(3-hydroxypyrrolidin-1-yl)-1,3-dimethyl-1,6-naphthyridin-2(1H)-one]	
< 50	2010 to 5000			Cc1cc2c(N3CCN(C)c4cc(-c5cnn(C(C)C)c5)ncc43)cc(N3CCOCC3)cc2n(C)c1=O [Example 136]	
51 to 100		22		Cc1cc2c(N3CCCc4cc(-c5cnn(C)c5)c(C(F)F)cc43)nc(C3=CCOCC3)cc2n(C)c1=O [Example 241, 5-(7-(Difluoromethyl)-6-(1-methyl-1H-pyrazol-4-yl)-3,4-dihydroquinolin-1(2H)-yl)-7-(3,6-dihydro-2H-pyran-4-yl)-1,3-dimethyl-1,6-naphthyridin-2(1H)-one]	
51 to 100		41		Cc1cc2c(N3CCN(C)c4cc(-c5cnn(C)c5)ncc43)cc(OC3CCOC3)cc2n(C)c1=O (centres unmarked) [Example 157]	
< 50	2010 to 5000			CNC(=O)c1ccc(-c2cc3c(cc2C#N)N(c2cc(OC)cc4c2cc(C)c(=O)n4C)CCC3)cn1 [Example 183]	
51 to 100	2010 to 5000			Cc1cc2c(N3CCN(C)c4cc(-c5cnn(C)c5)ncc43)cc(OCc3ncco3)cc2n(C)c1=O [Example 159]	
